Assay results published in patent US10906905B2, “Five-membered heteroaryl ring bridged ring derivative, preparation method therefor and medical use thereof” (Jiangsu Hengrui Medicine Co., Ltd., priority 2016, dated 2021).
Where two headings read alike, the source gives them in different places.

How the values were obtained:
[1] = tested on: Smad signaling pathway of TGFβRI; assay: Inhibition of Smad signaling pathway of TGFβRI (3TP-lux luciferase reporter in HepG2 cell); assay type: cell-based; details: Homo sapiens, read-out: IC50 on the inhibition of Smad signaling pathway of TGFβRI
Protocol: The inhibition effect of the compounds of the present invention on Smad signaling pathway of TGFβRI was determined by the following in vitro test.
The inhibition effect of the compounds of the present invention on Smad signaling pathway of TGFβRI was determined by the following experimental method:
The seeding density is 2.5×10^4 cells/well. The cells were incubated overnight at 37° C., 5% CO2. Each well was replaced with fresh EMEM medium containing 10% FBS. […] The cells were further incubated for 24 hours at 37° C., 5% CO2. Each well was replaced with 90 μL of EMEM medium containing 0.5% FBS, then the cells were starved for 6 hours. The compounds were formulated as a 20 mM stock solution, which was diluted in gradient to a 400× concentration with 100% DMSO, and further 40-fold diluted with EMEM containing 0.5% FBS. The cell culture plate was taken out, then 10 μl of diluted compound or control (0.25% DMSO) was added to each well respectively. The plate was shaken gently, then incubated for 18 hours in an incubator at 37° C., 5% CO2. Finally, 100 μl of detection reagent ONE-Glo™ Luciferase Assay (E6110, Promega) was added to each well, and the plate was placed in dark at room temperature for 10 minutes. The chemiluminescence signal values were measured with a Victor 3.0 (PerkinElmer). The IC50 values of the compounds were calculated using Graphpad Prism software based on each concentration of the compound and the corresponding signal value thereof.

TGFβRI kinase ALK5 = TGFβRI kinase ALK5 (Homo sapiens (Human), UniProt P36897); assay: Inhibition of TGFβRI kinase ALK5 activity (TGFβRI kinase assay kit, ADP-Glo); assay type: biochemical; details: ATP 50 μM; read-out: IC50 of inhibition effect on TGFβRI kinase ALK5 activity
Protocol: The inhibition effect of TGFβRI kinase activity in vitro was determined by the following method.
The inhibition effect of the compounds of the present invention on TGFβRI kinase ALK5 activity was determined by the following experimental method:
TGFβRI kinase assay kit (V4093, Promega) was used to assay enzyme activity. 2 μl of enzyme solution (the final concentration of enzyme in the reaction system was 2 ng/μL) formulated with reaction buffer (40 mM Tris pH 7.5, 20 mM MgCl2, 0.1 mg/ml BSA), 1 μl of a 3-fold gradient dilution of the compounds dissolved in 5% DMSO, and 2 μl of a mixed solution of ATP and TGFβRI substrate peptide (the final concentration of ATP was 50 μM, and the final concentration of substrate was 0.2 μg/μL) were added successively to a 384-well plate (4514, Corning). After reaction at 27° C. for 2.5 hours, 5 μl of ADP-Glo solution in the kit was added to each well, then the plate was placed at 27° C. for 40 minutes. 10 μl of kinase assay reagent was then added to each well, then the plate was placed at 27° C. for 30 minutes. The chemiluminescence signal values were measured with a Victor 3 (PerkinElmer) multi-function microplate reader. The IC50 values of the compounds for enzyme inhibition were calculated using Graphpad prism software based on each concentration of the compound and the corresponding signal value thereof.

NIH3T3 cell = assay: Inhibition of NIH3T3 cell proliferation (CellTiter-Glo); assay type: cell-based; details: Mus musculus, 72 hours, 0.5% FBS
Protocol: The inhibition effect of the compounds of the present invention on NIH3T3 cell proliferation was determined by the following in vitro test.
The inhibition effect of the compounds of the present invention on NIH3T3 cell proliferation was determined by the following experimental method:
On a 96-well white plate with transparent bottom (3903, Corning), 100 μL of NIH3T3 cell (GNM6, Cell Bank of Typical Culture Collection Committee of Chinese Academy of Sciences) was seeded in a DMEM medium containing 10% FBS in each well. The seeding density is 2000 cells/well. The cells were incubated overnight at 37° C., 5% CO2. After overnight incubation, each well was replaced with 90 μL of DMEM medium containing 0.5% FBS. 10 μl of a 3-fold gradient dilution of the compounds with DMEM medium containing 0.5% FBS was then added, and the plate was incubated for 72 hours in a cell incubator at 37° C., 5% CO2. Finally, 50 μL of CellTiter-Glo (G7573, Promega) was added to each well. After incubation for 10 minutes at room temperature, the chemiluminescence signal values were measured with a Victor 3 microplate reader (PerkinElmer). The IC50 values of the compounds were calculated using Graphpad Prism software based on each concentration of the compound and the corresponding signal value thereof.

[2] = Pharmacokinetics assay in rats after intragastrical administration; assay type: in vivo; details: both sexes, Sprague-Dawley, rat, plasma, po, SD rats, 2 mg/kg
Protocol: Rats were used as test animals. The drug concentration in plasma at different time points was determined by LC/MS/MS method after intragastrical administration of the compounds of Examples 1-1, 1-2, 2-1, 3-1, the compound with retention time of 6.631 minutes among Examples 9-1 and 9-2, and the compounds of Examples 33 and 39-1 to rats. The pharmacokinetic behavior of the compounds of the present invention was studied and evaluated in rats.
Compounds of Examples 1-1, 1-2, 2-1, 3-1, compound with retention time of 6.631 minutes among Examples 9-1 and 9-2, and compounds of Examples 33 and 39-1.
Twenty-eight healthy adult Sprague-Dawley (SD) rats (half male and half female) were purchased from SINO-BRITISH SIPPR/BK LAB. ANIMAL LTD., CO, with Certificate No.: SCXK (Shanghai) 2008-0016, and equally divided into 7 groups (4 rats per group).
A certain amount of the test compound was weighed, and added with 5% by volume of DMSO, 5% by volume of Tween 80, and 90% by volume of physiological saline were added to prepare a 0.2 mg/mL colorless, clear and transparent solution.
After an overnight fast, SD rats were administered intragastrically the test compounds at an administration dosage of 2.0 mg/kg and an administration volume of 10.0 mL/kg.
The rats were intragastrically administered the compounds of Examples 1-1, 1-2, 2-1, 3-1, the compound with retention time of 6.631 minutes among Examples 9-1 and 9-2, and the compounds of Examples 33 and 39-1.0.2 mL of blood was taken from the orbital sinus before administration and at 0.5, 1.0, 2.0, 4.0, 6.0, 8.0, 11.0 and 24.0 hours after administration. The samples were stored in heparinized tubes, and centrifuged for 10 minutes at 4° C. at 3,500 rpm to separate the blood plasma. The plasma samples were stored at −20° C. The rats were fed 2 hours after administration.
The content of the test compounds in the plasma of rats after intragastrical administration of the test compounds at different concentrations was determined: 25 μL of rat plasma at each time after administration was taken, added with 50 μL (100 ng/mL) of the internal standard solution of camptothecin and 175 μL of acetonitrile, shaken vertically for 5 minutes, and centrifuged for 10 minutes (4000 rpm). 3.0 μL of the supernatant was taken from the plasma samples for LC/MS/MS analysis.

[3] = HepG2 cell, 3TP-lux plasmid, 18 hours

TGFβRI kinase ALK5, sequence (P36897 34-503): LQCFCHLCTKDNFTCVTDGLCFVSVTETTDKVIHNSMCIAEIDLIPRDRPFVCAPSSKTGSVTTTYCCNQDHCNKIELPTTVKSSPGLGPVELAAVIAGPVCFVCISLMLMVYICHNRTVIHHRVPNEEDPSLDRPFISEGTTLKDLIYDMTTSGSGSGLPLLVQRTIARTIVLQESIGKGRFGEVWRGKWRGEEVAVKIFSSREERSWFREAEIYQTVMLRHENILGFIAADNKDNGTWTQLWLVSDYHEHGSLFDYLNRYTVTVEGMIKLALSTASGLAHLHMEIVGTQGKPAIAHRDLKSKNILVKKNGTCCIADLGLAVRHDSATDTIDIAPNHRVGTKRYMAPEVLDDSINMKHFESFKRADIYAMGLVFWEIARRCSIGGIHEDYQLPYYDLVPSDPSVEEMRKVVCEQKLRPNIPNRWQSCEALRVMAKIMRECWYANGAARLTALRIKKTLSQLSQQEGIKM

SMILES | IC50 [1, 3] [nM] | IC50 (TGFβRI kinase ALK5) [nM] | further results
Cc1cccc(-c2nc3n(c2-c2ccc4nccc(C(N)=O)c4c2)C2CCC3C2)n1 (centres unmarked) [Example 1, 6-(2-(6-Methylpyridin-2-yl)-5,6,7,8-tetrahydro-5,8-methanoimidazo[1,2-a]pyridin-3-yl) quinoline-4-carboxamide] | 57 | 14 | IC50 (NIH3T3 cell): 80 nM
Cc1cccc(-c2nc3n(c2-c2ccc4nccc(C(N)=O)c4c2)[C@@H]2CC[C@H]3C2)n1 [Example 1-2, 6-((5R,8S)-2-(6-Methylpyridin-2-yl)-5,6,7,8-tetrahydro-5,8-methanoimidazo[1,2-a]pyridin-3-yl)quinoline-4-carboxamide] | 15 | 16 | Vd/F ([2]; read-out: Apparent distribution volume Vz/F): 14.6 ± 7.63 L/kg; AUC ([2]; read-out: Area under curve AUC): 475 ± 267 ng·h/mL; CL/F ([2]; read-out: Clearance CLz/F): 89.2 ± 47.4 mL/min/kg; half-life ([2]; read-out: Half-life T1/2 (converted)): 1.92 ± 0.14 h; Cmax ([2]; read-out: Plasma concentration Cmax): 146 ± 81 ng/mL; MRT ([2]; read-out: Residence time MRT): 3.53 ± 0.93 h
Cc1cccc(-c2nc3n(c2-c2ccnc(NCCO)c2)C2CCC3C2)n1 (centres unmarked) [Example 5, 2-((4-(2-(6-Methylpyridin-2-yl)-5,6,7,8-tetrahydro-5,8-methanoimidazo[1,2-a]pyridin-3-yl)pyridin-2-yl)amino)ethanol] | 39 | 59 | 
Cc1cccc(-c2nc3n(c2-c2ccnc(NCCO)c2)[C@H]2CC[C@@H]3C2)n1 [Example 5-1, 2-((4-((5S,8R)-2-(6-Methylpyridin-2-yl)-5,6,7,8-tetrahydro-5,8-methanoimidazo[1,2-a]pyridin-3-yl)pyridin-2-yl)amino)ethanol] |  | 46 | IC50 ([1]; HepG2, 18 h): 75 nM
Cc1cccc(-c2nc3n(c2-c2ccc4nccnc4c2)C2CCC3C2)n1 (centres unmarked) [Example 6, 2-(6-Methylpyridin-2-yl)-3-(quinoxalin-6-yl)-5,6,7,8-tetrahydro-5,8-methanoimidazo[1,2-a]pyridine] | 21 | 26 | IC50 (NIH3T3 cell): 22 nM
Cc1cccc(-c2nc3n(c2-c2ccc4ncc(OCCO)nc4c2)C2CCC3C2)n1 (centres unmarked) [Example 7, 2-((7-(2-(6-Methylpyridin-2-yl)-5,6,7,8-tetrahydro-5,8-methanoimidazo[1,2-a]pyridin-3-yl)quinoxalin-2-yl)oxy)ethanol] | 6 | 20 | IC50 (NIH3T3 cell): 23 nM
NC(=O)c1nnc2ccc(-c3c(-c4ccc(F)cn4)nc4n3C3CCC4C3)cn12 (centres unmarked) [Example 9, 6-(2-(5-Fluoropyridin-2-yl)-5,6,7,8-tetrahydro-5,8-methanoimidazo[1,2-a]pyridin-3-yl)-[1,2,4]triazolo[4,3-a]pyridine-3-carboxamide] | 82 | 43 | IC50 (NIH3T3 cell): 91 nM
Cc1cccc(-c2nc3n(c2-c2ccnc(-c4ccc(S(N)(=O)=O)cc4)c2)[C@H]2CC[C@@H]3C2)n1 [Example 13-1, 4-(4-((5S,8R)-2-(6-Methylpyridin-2-yl)-5,6,7,8-tetrahydro-5,8-methanoimidazo[1,2-a]pyridin-3-yl)pyridin-2-yl)benzenesulfonamide] | 37 | 11 | 
Cc1cccc(-c2nc3n(c2-c2ccnc(Nc4ccc(S(N)(=O)=O)cc4)c2)C2CCC3C2)n1 (centres unmarked) [Example 14, 4-((4-(2-(6-Methylpyridin-2-yl)-5,6,7,8-tetrahydro-5,8-methanoimidazo[1,2-a]pyridin-3-yl)pyridin-2-yl)amino)benzenesulfonamide] |  | 31 | IC50 ([1]; HepG2, 18 h): 81 nM
Cc1cccc(-c2nc3n(c2-c2ccnc(NC[C@H](C)O)c2)[C@H]2CC[C@@H]3C2)n1 [Example 18-1, (S)-1-((4-((5S,8R)-2-(6-Methylpyridin-2-yl)-5,6,7,8-tetrahydro-5,8-methanoimidazo[1,2-a]pyridin-3-yl)pyridin-2-yl)amino)propan-2-ol] | 88 | 80 | 
Cc1cccc(-c2nc3n(c2-c2ccnc(N)c2)C2CCC3C2)n1 (centres unmarked) [Example 32, 4-(2-(6-Methylpyridin-2-yl)-5,6,7,8-tetrahydro-5,8-methanoimidazo[1,2-a]pyridin-3-yl)pyridin-2-amine] |  | 9 | IC50 ([1]; HepG2, 18 h): 8 nM
Cc1cccc(-c2nc3n(c2-c2ccnc(-c4cnn(S(C)(=O)=O)c4)c2)C2CCC3C2)n1 (centres unmarked) [Example 43, 2-(6-Methylpyridin-2-yl)-3-(2-(1-(methylsulfonyl)-1H-pyrazol-4-yl)pyridin-4-yl)-5,6,7,8-tetrahydro-5,8-methanoimidazo[1,2-a]pyridine] |  | 21 | IC50 ([1]; HepG2, 18 h): 11 nM
CS(=O)(=O)c1ccc(-c2cc(-c3c(-c4ccccn4)nc4n3[C@H]3CC[C@@H]4C3)ccn2)cc1 [Example 46-1, (5S,8R)-3-(2-(4-(Methylsulfonyl)phenyl)pyridin-4-yl)-2-(pyridin-2-yl)-5,6,7,8-tetrahydro-5,8-methanoimidazo[1,2-a]pyridine] | 79 | 34 | 
NC(=O)c1nnc2cc(-c3c(-c4ccccn4)nc4n3[C@H]3CC[C@@H]4C3)ccn12 [Example 47-1, 7-((5S,8R)-2-(Pyridin-2-yl)-5,6,7,8-tetrahydro-5,8-methanoimidazo[1,2-a]pyridin-3-yl)-[1,2,4]triazolo[4,3-a]pyridine-3-carboxamide] | 53 | 39 | 
